From PMC10033409, “Autoregulation of GPCR signalling through the third intracellular loop” (Nature, 2023)
Values joined by “and” are separate entries in the source; they are usually repeats but may differ in a detail not shown here. Equal entries are not always repeated.

Assays:
[1] = test system: Untransfected; assay: Radiolabelled antagonist-binding assay (saturation), untransfected control sample; conditions: fitted curve
Text: Supplement 41586_2023_5789_MOESM3_ESM.xlsx, sheet "Extended Data Figure 3J"

[2] = biological target: β2AR (Homo sapiens, UniProt P07550); assay: Radiolabelled antagonist-binding assay (saturation); design: HA; expressed in transfected cells; host or cells: crude membrane extracts of transfected cells; Bmax / 125I-Cyanopindolol saturation binding signal: unit not given here; conditions: for Bmax / fmol 125I-Cyanopindolol/mg sample: replicates 1-3 and Average; for fmol 125I-Cyanopindolol/mg sample, Fit: fitted curve;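 for all read-outs here: membranes expressing β2AR constructs, equilibrated with radioligand on ice, bound ligand retained on GF/C filters, Bmax normalized to membrane protein from a DC assay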
[3] = Wild-Type + Gs-peptide, 125I-Cyanopindolol 0.000239059 nM
[4] = Wild-Type + Gs-peptide, 125I-Cyanopindolol 0.0167722 nM
[5] = Wild-Type + Gs-peptide, 125I-Cyanopindolol 0.0344858 nM
[6] = Wild-Type + Gs-peptide, 125I-Cyanopindolol 0.073983 nM
[7] = Wild-Type + Gs-peptide, 125I-Cyanopindolol 0.202201 nM
[8] = Wild-Type + Gs-peptide, 125I-Cyanopindolol 0.415365 nM
[9] = Wild-Type + Gs-peptide, 125I-Cyanopindolol 0.83063 nM
[10] = Wild-Type + Gs-peptide, 125I-Cyanopindolol 1.64238 nM

[^125I](±)-cyanopindolol was tested, and the “fmol 125I-Cyanopindolol/mg sample, Fit” value ([1]; 125I-Cyanopindolol 0.0198458 nM (Average)) was 7.834e-5 fmol/mg sample, the “fmol 125I-Cyanopindolol/mg sample, Fit” value ([1]; 125I-Cyanopindolol 0.0420593 nM (Average)) was 0.0001875 fmol/mg sample and the “fmol 125I-Cyanopindolol/mg sample, Fit” value ([1]; 125I-Cyanopindolol 0.234223 nM (Average)) was 0.05859 fmol/mg sample. The “fmol 125I-Cyanopindolol/mg sample, Fit” value ([1]; 125I-Cyanopindolol 0.468204 nM (Average)) was 1.044 fmol/mg sample, the “fmol 125I-Cyanopindolol/mg sample, Fit” value ([1]; 125I-Cyanopindolol 0.871756 nM (Average)) was 13.7262 fmol/mg sample and the “fmol 125I-Cyanopindolol/mg sample, Fit” value ([1]; 125I-Cyanopindolol 1.70257 nM (Average)) was 172.555 fmol/mg sample. For the same substance, the “125I-Cyanopindolol saturation binding signal” value ([2]; Wild-Type + 30 µM Gq-peptide, 0.0283 nM, Average) was 147.58, the “125I-Cyanopindolol saturation binding signal” value ([2]; Wild-Type + 30 µM Gq-peptide, 0.0283 nM, Fit) was 291.67 and the “125I-Cyanopindolol saturation binding signal” value ([2]; Wild-Type + 30 µM Gq-peptide, 0.0283 nM, experiments 1-3) was 132.79 and 160.83 and 149.12. The “125I-Cyanopindolol saturation binding signal” value ([2]; Wild-Type + 30 µM Gq-peptide, 0.0474 nM, Average) was 534.47, the “125I-Cyanopindolol saturation binding signal” value ([2]; Wild-Type + 30 µM Gq-peptide, 0.0474 nM, Fit) was 446.28 and the “125I-Cyanopindolol saturation binding signal” value ([2]; Wild-Type + 30 µM Gq-peptide, 0.0474 nM, experiments 1-3) was 334.07 and 648.49 and 620.85. For the same substance, the “125I-Cyanopindolol saturation binding signal” value ([2]; Wild-Type + 30 µM Gq-peptide, 0.10 nM, Average) was 767.43, the “125I-Cyanopindolol saturation binding signal” value ([2]; Wild-Type + 30 µM Gq-peptide, 0.10 nM, Fit) was 753.07 and the “125I-Cyanopindolol saturation binding signal” value ([2]; Wild-Type + 30 µM Gq-peptide, 1.85 nM, Average) was 1934.67. The “125I-Cyanopindolol saturation binding signal” value ([2]; Wild-Type + 30 µM Gq-peptide, 1.85 nM, Fit) was 1934.64, the Bmax ([2]; Wild-Type + Gs-pep) was 2030.45 and 2045.98 and 1796.67 and the Bmax ([2]; Wild-Type + Gs-pep, mean) was 1957.70. For the same substance, the “fmol 125I-Cyanopindolol/mg sample, Fit” value [2, 3] was 0.00E+00 fmol/mg sample, the “fmol 125I-Cyanopindolol/mg sample” value [2, 3] was -0.7197 fmol/mg sample and 0.9706 fmol/mg sample and -1.162 fmol/mg sample and the “fmol 125I-Cyanopindolol/mg sample” value ([2]; Wild-Type + Gs-peptide, 125I-Cyanopindolol 0.000239059 nM, mean) was -0.3038 fmol/mg sample. For the same substance, the “fmol 125I-Cyanopindolol/mg sample, Fit” value [2, 4] was 4.58E+02 fmol/mg sample, the “fmol 125I-Cyanopindolol/mg sample” value [2, 4] was 412.161 fmol/mg sample and 473.943 fmol/mg sample and 418.268 fmol/mg sample and the “fmol 125I-Cyanopindolol/mg sample” value ([2]; Wild-Type + Gs-peptide, 125I-Cyanopindolol 0.0167722 nM, mean) was 434.79 fmol/mg sample. For the same substance, the “fmol 125I-Cyanopindolol/mg sample, Fit” value [2, 5] was 7.83E+02 fmol/mg sample, the “fmol 125I-Cyanopindolol/mg sample” value [2, 5] was 735.259 fmol/mg sample and 854.634 fmol/mg sample and 743.19 fmol/mg sample and the “fmol 125I-Cyanopindolol/mg sample” value ([2]; Wild-Type + Gs-peptide, 125I-Cyanopindolol 0.0344858 nM, mean) was 777.694 fmol/mg sample. The “fmol 125I-Cyanopindolol/mg sample, Fit” value [2, 6] was 1.18E+03 fmol/mg sample, the “fmol 125I-Cyanopindolol/mg sample” value [2, 6] was 1168.59 fmol/mg sample and 1355.16 fmol/mg sample and 1153.34 fmol/mg sample and the “fmol 125I-Cyanopindolol/mg sample” value ([2]; Wild-Type + Gs-peptide, 125I-Cyanopindolol 0.073983 nM, mean) was 1225.7 fmol/mg sample. For the same substance, the “fmol 125I-Cyanopindolol/mg sample, Fit” value [2, 7] was 1.61E+03 fmol/mg sample, the “fmol 125I-Cyanopindolol/mg sample” value [2, 7] was 1680.99 fmol/mg sample and 1767.57 fmol/mg sample and 1409.36 fmol/mg sample and the “fmol 125I-Cyanopindolol/mg sample” value ([2]; Wild-Type + Gs-peptide, 125I-Cyanopindolol 0.202201 nM, mean) was 1619.31 fmol/mg sample. For the same substance, the “fmol 125I-Cyanopindolol/mg sample, Fit” value [2, 8] was 1.79E+03 fmol/mg sample, the “fmol 125I-Cyanopindolol/mg sample” value [2, 8] was 1709.61 fmol/mg sample and 1882.35 fmol/mg sample and 1548.71 fmol/mg sample and the “fmol 125I-Cyanopindolol/mg sample” value ([2]; Wild-Type + Gs-peptide, 125I-Cyanopindolol 0.415365 nM, mean) was 1713.56 fmol/mg sample. The “fmol 125I-Cyanopindolol/mg sample, Fit” value [2, 9] was 1.88E+03 fmol/mg sample, the “fmol 125I-Cyanopindolol/mg sample” value [2, 9] was 1837.2 fmol/mg sample and 2069.95 fmol/mg sample and 1681.21 fmol/mg sample and the “fmol 125I-Cyanopindolol/mg sample” value ([2]; Wild-Type + Gs-peptide, 125I-Cyanopindolol 0.83063 nM, mean) was 1862.79 fmol/mg sample. For the same substance, the “fmol 125I-Cyanopindolol/mg sample, Fit” value [2, 10] was 1.93E+03 fmol/mg sample, the “fmol 125I-Cyanopindolol/mg sample” value [2, 10] was 2102.36 fmol/mg sample and 2003.58 fmol/mg sample and 1852.88 fmol/mg sample and the “fmol 125I-Cyanopindolol/mg sample” value ([2]; Wild-Type + Gs-peptide, 125I-Cyanopindolol 1.64238 nM, mean) was 1986.27 fmol/mg sample. For the same substance, the “125I-Cyanopindolol saturation binding signal” value ([2]; Wild-Type, 0.0283 nM, Average) was 144.50, the “125I-Cyanopindolol saturation binding signal” value ([2]; Wild-Type, 0.0283 nM, Fit) was 400.71 and the “125I-Cyanopindolol saturation binding signal” value ([2]; Wild-Type, 0.0474 nM, Average) was 627.51. The “125I-Cyanopindolol saturation binding signal” value ([2]; Wild-Type, 0.0474 nM, Fit) was 590.99, the “125I-Cyanopindolol saturation binding signal” value ([2]; Wild-Type, 0.10 nM, Average) was 1200.07 and the “125I-Cyanopindolol saturation binding signal” value ([2]; Wild-Type, 0.10 nM, Fit) was 964.14. The “125I-Cyanopindolol saturation binding signal” value ([2]; Wild-Type, 1.85 nM, Average) was 2740.91, the “125I-Cyanopindolol saturation binding signal” value ([2]; Wild-Type, 1.85 nM, Fit) was 2640.83 and the “125I-Cyanopindolol saturation binding signal” value ([2]; Wild-Type, 1.85 nM, experiments 1-3) was 2770.91 and 2891.39 and 2560.43. For the same substance, the “fmol 125I-Cyanopindolol/mg sample, Fit” value ([2]; Wild-Type, 125I-Cyanopindolol 0.0198458 nM (Average)) was 3.84E+02 fmol/mg sample, the “fmol 125I-Cyanopindolol/mg sample, Fit” value ([2]; Wild-Type, 125I-Cyanopindolol 0.0420593 nM (Average)) was 7.28E+02 fmol/mg sample and the “fmol 125I-Cyanopindolol/mg sample, Fit” value ([2]; Wild-Type, 125I-Cyanopindolol 0.234223 nM (Average)) was 1.65E+03 fmol/mg sample. The “fmol 125I-Cyanopindolol/mg sample, Fit” value ([2]; Wild-Type, 125I-Cyanopindolol 0.468204 nM (Average)) was 1.86E+03 fmol/mg sample, the “fmol 125I-Cyanopindolol/mg sample, Fit” value ([2]; Wild-Type, 125I-Cyanopindolol 0.871756 nM (Average)) was 1.97E+03 fmol/mg sample and the “fmol 125I-Cyanopindolol/mg sample, Fit” value ([2]; Wild-Type, 125I-Cyanopindolol 1.70257 nM (Average)) was 2.02E+03 fmol/mg sample. The Bmax ([2]; Wild-Type) was 2241.12 and 1916.49 and 2106.37 and the Bmax ([2]; Wild-Type, mean) was 2087.99.
